Ends that are not written are not given here.
Tests used:
[1] = Thioflavin T (ThT) assay of fibril formation; format: physicochemical; conditions: formation of ThT positive aggregates
HSV-2 = format: cell-based; conditions: serial dilutions of peptides added to ELVIS cells, infected 1 h later with HSV-2; lacZ enzyme activity one day post-infection; ±SD; one (inactive) to three (active) experiments in triplicates
[2] = tested on: THP-1-derived macrophages; assay: Phagocytosis of E. coli-GFP by THP-1-derived macrophages; format: cell-based, human; conditions: E. coli-GFP pre-incubated with 1 mg/ml fibrils, 3 h on cells; CytD 2 µg/ml pre-treatment 30 min; confocal microscopy

Compound	ThT signal (+/-) [1]	IC50 (antiviral activity, HSV-2) (HSV-2)	uptake of E. coli-GFP by macrophages [2]
ASVSTVL [HBA 131-137]	+	> 130 µg/mL	
SVSTVLTSKYR [HBA 132-142]	-	> 130 µg/mL	
SVSTVL [HBA 132-137]	-	> 130 µg/mL	
LASVSTVL [HBA 130-137]	+	> 130 µg/mL	
KFLASVST [HBA 128-135]	-	> 130 µg/mL	
C=C1[C@@H](C)[C@H]2[C@H](Cc3ccccc3)NC(=O)[C@]23[C@H](OC(C)=O)/C=C/[C@@](C)(O)C(=O)[C@@H](C)C/C=C/[C@H]3[C@@H]1O [CytD, Cytochalasin D]			prevented the uptake of any bacteria
AAHLPAEFTPAVHASLDKFLA [HBA(111–131)]	-	> 130 µg/mL	

From article PMC10191403, “The C-terminal 32-mer fragment of hemoglobin alpha is an amyloidogenic peptide with antimicrobial properties” (Cellular and Molecular Life Sciences: CMLS, 2023)
